Reference: patent US9120798B2, “Amino-heteroaryl 7-hydroxy-spiropiperidine indolinyl antagonists of P2Y1 receptor” (priority 2012, dated 2015)

How the values were obtained:
[1] = system: human platelet rich plasma (PRP); assay: ADP induced platelet aggregation assay; assay type: cell-based; conditions: 5 min, read-out: PA IC50 (μM) @ 10 μM ADP
Experimental: ADP Induced Platelet Aggregation Assay
The ability of P2Y1 antagonists covered in the present invention to inhibit platelet aggregation induced by 10 μM ADP was tested using human platelet rich plasma (PRP) as described in Platelet Protocols: Research and Clinical Laboratory Procedures (White, M. M. et al., Academic Press (1999)). Human blood was collected in 30 μM (final concentration in blood) argatroban (GSK) as the anticoagulant at a ratio of 1 ml per 9 ml of blood. The PRP was isolated by centrifugation at 170 g for 12 minutes. The platelet poor plasma (PPP) was used as the blank for optical aggregometry. Compounds of the present invention in DMSO solution was preincubated with 250 μl PRP at 37° C. for 1 minute with stirring speed of 1000 rpm. Aggregation was initiated by addition of 2.5 μl of 1 mM ADP (Chrono-log, Havertown, Pa.) for a final ADP concentration of 10 uM. Platelet aggregation was monitored using Optical Aggregometer (Chrono-log, Havertown, Pa.) and the area under the curve (AUC) at 5 minute was measured. IC50 was calculated using vehicle control as 0% inhibition.
The platelet aggregation assay measures the in vitro antiplatelet activity of a compound in platelet rich plasma. The assay is sensitive to plasma protein binding, and is believed to be a better predictor of actual in vivo activity.

[2] = target: T1, cloned human P2Y1 receptors (Homo sapiens (Human), UniProt P47900); assay: Binding Assay A: membrane binding assay, [33P] 2MeS-ADP, WGA FlashPlates
From the text: A membrane binding assay was used to identify inhibitors of [^33P] […] The cDNA clone for human P2Y1 was obtained from Incyte Pharmaceuticals and its sequence confirmed by established techniques (for a compendium of techniques used see Ausubel, F. et al. Current Protocols in Molecular Biology, John Wiley and Sons, NY, N.Y. (1995)). The essential coding sequences were subcloned into pCDNA 3.1 (Invitrogen) to produce a P2Y1 expression construct. This construct was then transfected into the human embryonic kidney cell line HEK-293 and stable transfectants selected in GENETICIN® (G418 sulfate; Life Technologies). […] Membranes were prepared by growing HEK293 #49 in 150 mm dishes in DMEM/10% FBS in the presence of 1 mg/ml G418 until cells were 80-90% confluent. Plates were then washed with cold (4° C.) D-PBS twice and cells harvested by scraping into 10 mL D-PBS. Cells were pelleted by centrifugation (1,000 g, 10 min, 4° C.) and the resulting pellet resuspended in Lysis Buffer (10 mM Tris (7.4), 5 mM MgCl2 containing Complete protease inhibitor cocktail (Roche Cat #1873580) as recommended by the manufacturer). The suspension was then homogenized in a Dounce homogenizer (10-15 strokes; B pestle, on ice) and the homogenate spun at 1,000 g, 4° C., 5 min to pellet large debris. The supernatant was centrifuged at 150,000 g, 4° C., for 1 hour and the resulting membrane pellet resuspended in 0.5-1 mL of Buffer B (15 mM HEPES (7.4), 145 mM NaCl, 0.1 mM MgCl2, 5 mM EDTA, 5 mM KCl) and stored at −70° C. until used.
Binding reactions were performed in WGA FlashPlates (PerkinElmer Life Sciences, Cat # SMP105A) in a volume of 200 μL containing ˜45 fmol of P2Y1 receptor (5 μg of total protein), 0.5 nM [^33P] […] Reactions were allowed to proceed to completion at room temperature for 1 hour and then the aqueous solution aspirated. Plates were sealed and the residual [^33P] bound to the plate determined by scintillation counting.

[3] = target: T1, cloned human P2Y1 receptors; assay: Binding Assay B: Scintillation Proximity Assay (SPA) for P2Y1 binding
Experimental: Binding Assay B—Scintillation Proximity Assay (SPA) for P2Y1 Binding
A SPA membrane binding assay was used to identify inhibitors of [^33P] […] Binding reactions were performed in 384-well OptiPlates (PerkinElmer Life Sciences, Cat #6007299) in a volume of 50 μL containing ˜15 fmol of P2Y1 receptor (1.7 μg of total protein), 0.3 nM [^33P] […] Reactions were allowed to proceed to completion at room temperature for 1 hour followed by centrifugation of the plate for 5 min. About 40 μL of the aqueous solution was aspirated. Plates were sealed and the [^33P]

[4] = read-out: P2Y1 Ki (nM), *Using binding assay A
[5] = SPA, 0.3 nM [33P] 2MeS-ADP, Cheng-Prusoff, read-out: P2Y1 Ki (nM) using binding assay B

T1 sequence (P47900 whole entry): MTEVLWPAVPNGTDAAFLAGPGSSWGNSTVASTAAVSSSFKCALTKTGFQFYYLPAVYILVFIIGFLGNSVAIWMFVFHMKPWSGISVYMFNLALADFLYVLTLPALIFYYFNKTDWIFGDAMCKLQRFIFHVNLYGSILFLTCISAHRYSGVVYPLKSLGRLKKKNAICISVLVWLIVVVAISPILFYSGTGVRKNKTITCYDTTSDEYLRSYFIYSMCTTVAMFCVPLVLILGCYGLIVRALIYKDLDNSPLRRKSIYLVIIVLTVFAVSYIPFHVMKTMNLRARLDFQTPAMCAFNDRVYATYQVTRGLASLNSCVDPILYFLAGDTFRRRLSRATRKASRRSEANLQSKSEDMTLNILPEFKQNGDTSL

| SMILES | IC50 [1] [µM] | Ki [2, 4] [nM] | Ki [2] [nM] | Ki [3] [nM] | Ki [3, 5] [nM] |
| --- | --- | --- | --- | --- | --- |
| CC(C)(C)CN1CCC2(CC1)CCN(c1ccccc1Nc1nc3ccc(C(C)(C)C)cc3[nH]1)c1ccccc12 [Comparator 1, reference compound] | > 40 | 259 |  |  |  |
| CCOC(=O)c1sc(Nc2ccccc2N2CC3(CCN(CC(C)(C)C)CC3)c3ccccc32)nc1C(F)(F)F [Comparator 2, reference compound] | > 40 | 6.3 |  |  |  |
| COC(=O)c1sc(Nc2ccccc2N2CC3(CCN(CC(C)(C)C)CC3)c3ccccc32)nc1C [Comparator 3, reference compound] | > 40 | 18 |  |  |  |
| CC(C)(C)CN1CCC2(CC1)CN(c1ccccc1Nc1nc(C(F)(F)F)c(-c3ccccc3)s1)c1ccccc12 [Comparator 4, reference compound] | > 40 | 7.9 |  |  |  |
| CC(C)(C)CN1CCC2(CC1)CN(c1ccccc1Nc1nnc(-c3ccc(C(F)(F)F)cc3)s1)c1c(O)ccc(Cl)c12 [Example 7, 4-Chloro-1′-neopentyl-1-(2-(5-(4-(trifluoromethyl)phenyl)-1,3,4-thiadiazol-2-ylamino)phenyl)spiro[indoline-3,4′-piperidin]-7-ol] | 2.7 |  | 3.3 |  |  |
| CC(C)(C)CN1CCC2(CC1)CN(c1ccccc1Nc1nnc(-c3ccc(Cl)cc3)s1)c1c(O)ccc(F)c12 [Example 31, 1-(2-((5-(4-chlorophenyl)-1,3,4-thiadiazol-2-yl)amino)phenyl)-4-fluoro-1′-neopentylspiro-[indoline-3,4′-piperidin]-7-ol] | 4.2 |  |  | 6 |  |
| CC(C)(C)CN1CCC2(CC1)CN(c1ccccc1Nc1nnc(-c3ccc(OC(F)(F)F)cc3)s1)c1c(O)c(F)cc(Cl)c12 [Example 32, 4-chloro-6-fluoro-1′-neopentyl-1-(2-((5-(4-(trifluoromethoxy)-phenyl)-1,3,4-thiadiazol-2-yl)amino)phenyl)spiro[indoline-3,4′-piperidin]-7-ol] | 15.6 |  |  | 69 |  |
| CC(C)(C)CN1CCC2(CC1)CN(c1ccccc1Nc1nnc(-c3ccc(OC(F)(F)F)cc3)s1)c1c(O)cc(F)c(Cl)c12 [Example 33, 4-chloro-5-fluoro-1′-neopentyl-1-(2-((5-(4-(trifluoromethoxy)-phenyl)-1,3,4-thiadiazol-2-yl)amino)phenyl)spiro[indoline-3,4′-piperidin]-7-ol] | 9.2 |  |  | 23 |  |
| CC(C)(C)CN1CCC2(CC1)CN(c1ccccc1Nc1nnc(-c3ccc(OC(F)(F)F)cc3)s1)c1c(O)cc(F)c(F)c12 [Example 34, 4,5-difluoro-1′-neopentyl-1-(2-((5-(4-(trifluoromethoxy)-phenyl)-1,3,4-thiadiazol-2-yl)amino)phenyl)spiro[indoline-3,4′-piperidin]-7-ol] | 9.9 |  |  | 37 |  |
| CC(C)(C)CN1CCC2(CC1)CN(c1ccccc1Nc1nc(-c3ccccc3)ns1)c1c(O)ccc(Cl)c12 [Example 35, 4-Chloro-1′-neopentyl-1-(2-(3-phenyl-1,2,4-thiadiazol-5-ylamino)phenyl)spiro[indoline-3,4′-piperidin]-7-ol] | 5.4 |  |  |  | 6 |
| CC(C)(C)CN1CCC2(CC1)CN(c1ccccc1Nc1nc(C(C)(C)C)ns1)c1c(O)ccc(Cl)c12 [Example 36, 1-(2-(3-tert-Butyl-1,2,4-thiadiazol-5-ylamino)phenyl)-4-chloro-1′-neopentylspiro[indoline-3,4′-piperidin]-7-ol] | 2.1 |  |  | 8 |  |
| CC(C)(C)CN1CCC2(CC1)CN(c1ccccc1Nc1cc(-c3ccc(C(F)(F)F)cc3)on1)c1c(O)ccc(Cl)c12 [Example 37, 4-Chloro-1′-neopentyl-1-(2-(5-(4-(trifluoromethyl)phenyl)isoxazol-3-ylamino)phenyl)spiro[indoline-3,4′-piperidin]-7-ol] | 9.9 |  |  | 60 |  |
| CC(C)(C)CN1CCC2(CC1)CN(c1ccccc1Nc1cc(-c3ccccc3)on1)c1c(O)ccc(Cl)c12 [Example 38, 4-Chloro-1′-neopentyl-1-(2-(5-phenylisoxazol-3-ylamino)phenyl)spiro[indoline-3,4′-piperidin]-7-ol] | 9 |  |  |  | 66 |
| CC(C)(C)CN1CCC2(CC1)CN(c1ccccc1Nc1nc(C(C)(C)C)c(C#N)s1)c1c(O)ccc(Cl)c12 [Example 39, 4-tert-Butyl-2-(2-(4-chloro-7-hydroxy-1′-neopentylspiro[indoline-3,4′-piperidine]-1-yl)phenylamino)thiazole-5-carbonitrile] | 4.9 |  |  | 9 |  |
| CCOC(=O)c1sc(Nc2ccccc2N2CC3(CCN(CC(C)(C)C)CC3)c3c(Cl)ccc(O)c32)nc1C(F)(F)F [Example 40, Ethyl 2-(2-(4-chloro-7-hydroxy-1′-neopentylspiro[indoline-3,4′-piperidine]-1-yl)phenylamino)-4-(trifluoromethyl)thiazole-5-carboxylate] | 1 |  |  | 19 |  |
| CC(C)CN1CCc2nc(Nc3ccccc3N3CC4(CCN(CC(C)(C)C)CC4)c4c(Cl)ccc(O)c43)sc2C1 [Example 41, 4-Chloro-1-(2-(5-isobutyl-4,5,6,7-tetrahydrothiazolo[5,4-c]pyridin-2-ylamino)phenyl)-1′-neopentylspiro[indoline-3,4′-piperidin]-7-ol] | 20.3 |  |  | 21 |  |
| CC(C)(C)CN1CCC2(CC1)CN(c1ccccc1Nc1ccc(C(F)(F)F)cn1)c1c(O)ccc(Cl)c12 [Example 42, 4-Chloro-1′-neopentyl-1-(2-(5-(trifluoromethyl)pyridin-2-ylamino)phenyl)spiro[indoline-3,4′-piperidin]-7-ol] | 22.8 |  |  | 22 |  |
| COC(=O)c1ccc(O)c2c1C1(CCN(CC(C)(C)C)CC1)CN2c1ccccc1Nc1nnc(-c2ccc(C(F)(F)F)cc2)s1 [Example 43, Methyl 7-hydroxy-1′-neopentyl-1-(2-(5-(4-(trifluoromethyl)phenyl)-1,3,4-thiadiazol-2-ylamino)phenyl)spiro[indoline-3,4′-piperidine]-4-carboxylate] | 3.1 |  |  | 8 |  |
| COC(=O)c1ccc(O)c2c1C1(CCN(CC(C)(C)C)CC1)CN2c1ccccc1Nc1nnc(-c2ccc(C(C)(C)C)cc2)s1 [Example 44, Methyl 1-(2-(5-(4-tert-butylphenyl)-1,3,4-thiadiazol-2-ylamino)phenyl)-7-hydroxy-1′-neopentylspiro[indoline-3,4′-piperidine]-4-carboxylate] | 0.8 |  |  |  | 8 |
| CC(C)(C)CN1CCC2(CC1)CN(c1ccccc1Nc1nnc(-c3ccc(C(F)(F)F)cc3)s1)c1c(O)ccc(C#N)c12 [Example 45, 7-Hydroxy-1′-neopentyl-1-(2-(5-(4-(trifluoromethyl)phenyl)-1,3,4-thiadiazol-2-ylamino)phenyl)spiro[indoline-3,4′-piperidine]-4-carbonitrile] | 3.5 |  |  | 3 |  |
| CC(C)(C)CN1CCC2(CC1)CN(c1ccccc1Nc1nnc(-c3ccc(C(C)(C)C)cc3)s1)c1c(O)ccc(C#N)c12 [Example 46, 1-(2-(5-(4-tert-Butylphenyl)-1,3,4-thiadiazol-2-ylamino)phenyl)-7-hydroxy-1′-neopentylspiro[indoline-3,4′-piperidine]-4-carbonitrile] | 1.1 |  |  | 10 |  |
